SMILES strings stand for the structures.

The values below come from patent US5952321A, “Substituted azetidinones as anti-inflammatory and antidegenerative agents” (Merck & Co., Inc., priority 1996, dated 1999).

The first test addresses T1, Human Polymorphonuclear Leukocyte Elastase (Homo sapiens, UniProt P08246).
T1 sequence (P08246 30-267): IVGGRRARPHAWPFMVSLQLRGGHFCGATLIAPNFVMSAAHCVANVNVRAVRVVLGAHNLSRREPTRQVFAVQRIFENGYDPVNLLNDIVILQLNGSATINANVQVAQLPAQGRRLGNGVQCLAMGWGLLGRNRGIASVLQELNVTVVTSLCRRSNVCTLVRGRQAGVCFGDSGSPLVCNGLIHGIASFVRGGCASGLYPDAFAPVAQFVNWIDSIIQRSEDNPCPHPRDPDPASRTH
The experiment in a line: Inhibition of human polymorphonuclear leukocyte elastase via hydrolysis of Boc-AAPAN or Boc-AAPVN. The conditions noted are these: pH 7.5, Table I; second order rate constant for inactivation of the enzyme; read-out: Kobs /[I]. The class given is biochemical. Here is the method:
Enzyme Assays for the Inhibition of Human Polymorphonuclear Leukocyte Elastase Via Hydrolysis of N-t-Boc-alanyl-alanyl-prolylalanine-p-nitroanilide (Boc-AAPAN) or […] (Boc-AAPVN) Reagent:
0.05M TES (N-tris[hydroxymethyl]methyl-2-amino-ethanesulfonic acid) Buffer, pH 7.5.
0.2 mM Boc-AAPAN or Boc-AAPVN.
To prepare substrate, the solid was first dissolved in 10.0 ml DMSO. Buffer at pH 7.5 was then added to a final volume of 100 ml.
Crude extract of human polymorphonuclear leukocytes (PMN) containing elastase activity.
Inhibitors (azetidinones) to be tested dissolved in DMSO just before use.
To 1.0 ml of 0.2 mM Boc-AAPAN in a cuvette, 0.01-0.1 ml of DMSO with or without inhibitor was added. After mixing, a measurement was taken at 410 mμ to detect any spontaneous hydrolysis due to presence of test compound. 0.05 Milliliters of PMN extract was then added and the ΔOD/min at 410 mμ was measured and recorded. Beckman model 35 spectrophotometer was used.
Results in Tables I to III were reported as ID50, effective dosage in micrograms per milliliter (μg/ml) for 50% inhibition of the enzyme activity 2 minutes after zero time.
Results were also expressed as Ki, the micromolar concentration of the inhibitor (μM) giving 50% of the control enzyme activity; or as ^k obs/I which is the second order rate constant in per mole per second for inactivation of the enzyme.
The elastase activity in the crude PMN extract may vary from one preparation to another. A control of each new batch is run, and the volume added in the assay procedure is adjusted according to activity.
Consider `CCC[C@@H](NC(=O)N1C(=O)C(CC)(CC)[C@@H]1Oc1ccc(CN2CCN(C(=O)N(C)C)CC2)cc1)c1ccc(C)cc1` [(4S)-3,3-Diethyl-1-[(R)-α-n-propyl-(4-methyl)benzylaminocarbonyl]-4-[(4-((4-dimethylaminocarbonyl)piperazin-1-yl)methyl)phenoxy]azetidin-2-one], for which the kinact/KI was 1.55e+06 M⁻¹ s⁻¹.

Take `CCC[C@@H](NC(=O)N1C(=O)C(CC)(CC)[C@@H]1Oc1ccc(CN2CCC[C@H]2CO)cc1)c1ccc(C)cc1` [R4+R5=--CH2 CH2 CH2 CH(S--CH2 OH); R6=H]: the kinact/KI amounted to 950000 M⁻¹ s⁻¹.

Regarding `CCC[C@@H](NC(=O)N1C(=O)C(CC)(CC)[C@@H]1Oc1ccc(CN2CCC(O)C2)cc1)c1ccc(C)cc1` (stereo partly shown) [R4+R5=--CH2 CH2 CH(OH)CH2 --; R6=H], the kinact/KI worked out at 1.2e+06 M⁻¹ s⁻¹.

Regarding `CCC[C@@H](NC(=O)N1C(=O)C(CC)(CC)[C@@H]1Oc1ccc(CN2CCC(O)CC2)cc1)c1ccc(C)cc1` [R4+R5=--CH2 CH2 CH(OH)CH2 CH2 --; R6=H], the kinact/KI stood at 1.15e+06 M⁻¹ s⁻¹.

Regarding `CCC[C@@H](NC(=O)N1C(=O)C(CC)(CC)[C@@H]1Oc1ccc(CN2CCC(OC)C2)cc1)c1ccc(C)cc1` (stereo partly shown) [R4+R5=--CH2 CH2 CH(OMe)CH2 --; R6=H], the kinact/KI is 765000 M⁻¹ s⁻¹.

With `CCC[C@@H](NC(=O)N1C(=O)C(CC)(CC)[C@@H]1Oc1ccc(C(C)N2CCC(OC)C2)cc1)c1ccc(C)cc1` (stereo partly shown) [R4+R5=--CH2 CH2 CH(OMe)CH2 --; R6=Me], the kinact/KI was determined as 1e+06 M⁻¹ s⁻¹.

For the compound `CCC[C@@H](NC(=O)N1C(=O)C(CC)(CC)[C@@H]1Oc1ccc(CN2CCN(C(C)=O)CC2)cc1)c1ccc(C)cc1` [R4+R5=--CH2 CH2 N(Ac)CH2 CH2 --; R6=H], the kinact/KI was 950000 M⁻¹ s⁻¹.

On to `CCC[C@@H](NC(=O)N1C(=O)C(CC)(CC)[C@@H]1Oc1ccc(CN2CCN(C(=O)c3ccccc3)CC2)cc1)c1ccc(C)cc1` [R4+R5=--CH2 CH2 N(Bz)CH2 CH2 --; R6=H], for which the kinact/KI turned out to be 1.7e+06 M⁻¹ s⁻¹.

Regarding `CCC[C@@H](NC(=O)N1C(=O)C(CC)(CC)[C@@H]1Oc1ccc(CN2CCN(C(C)C)CC2)cc1)c1ccc(C)cc1` [R4+R5=--CH2 CH2 N(i-Pr)CH2 CH2 --; R6=H], the kinact/KI was found to be 1.2e+06 M⁻¹ s⁻¹.

For `CCC[C@@H](NC(=O)N1C(=O)C(CC)(CC)[C@@H]1Oc1ccc(CN2CCOCC2)cc1)c1ccc(C)cc1` [R4+R5=--CH2 CH2 OCH2 CH2 --; R6=H], the kinact/KI amounted to 820000 M⁻¹ s⁻¹.

As for `CCC[C@@H](NC(=O)N1C(=O)C(CC)(CC)[C@@H]1Oc1ccc(C(C)N2CCOCC2)cc1)c1ccc(C)cc1` (stereo partly shown) [R4+R5=--CH2 CH2 OCH2 CH2 --; R6=Me], the kinact/KI worked out at 460000 M⁻¹ s⁻¹.

With `CCC[C@@H](NC(=O)N1C(=O)C(CC)(CC)[C@@H]1Oc1ccc(CN2CCSC2)cc1)c1ccc(C)cc1` [R4+R5=--CH2 CH2 SCH2 --; R6=H], the kinact/KI was found to be 940000 M⁻¹ s⁻¹.

With `CCC[C@@H](NC(=O)N1C(=O)C(CC)(CC)[C@@H]1Oc1ccc(CN2CCSCC2)cc1)c1ccc(C)cc1` [R4+R5=--CH2 CH2 SCH2 CH2 --; R6=H], the kinact/KI came out at 915000 M⁻¹ s⁻¹.

In the case of `CCC[C@@H](NC(=O)N1C(=O)C(CC)(CC)[C@@H]1Oc1ccc(CN2CC(C)NC(C)C2)cc1)c1ccc(C)cc1` (stereo partly shown) [R4+R5=--CH2 CHMeNCHMeCH2 --; R6=H], the kinact/KI was determined as 980000 M⁻¹ s⁻¹.

On to `CCC[C@@H](NC(=O)N1C(=O)C(CC)(CC)[C@@H]1Oc1ccc(Cn2ccnc2CC)cc1)c1ccc(C)cc1` [R4+R5=--CHCHNCEt--; R6=H], for which the kinact/KI is 2.25e+06 M⁻¹ s⁻¹.

For the compound `CCC[C@@H](NC(=O)N1C(=O)C(CC)(CC)[C@@H]1Oc1ccc(Cn2ccnc2)cc1)c1ccc(C)cc1` [R4+R5=--CHCHNCH--; R6=H], the kinact/KI was 1.6e+06 M⁻¹ s⁻¹.

Turning to `CCC[C@@H](NC(=O)N1C(=O)C(CC)(CC)[C@@H]1Oc1ccc(Cn2ccnc2C)cc1)c1ccc(C)cc1` [R4+R5=--CHCHNCMe--; R6=H], the kinact/KI was 1.4e+06 M⁻¹ s⁻¹.

In the case of `CCC[C@@H](NC(=O)N1C(=O)C(CC)(CC)[C@@H]1Oc1ccc(CN2C(C)CCCC2C)cc1)c1ccc(C)cc1` (stereo partly shown) [R4+R5=--CHMeCH2 CH2 CH2 CHMe--; R6=H], the kinact/KI was 1.15e+06 M⁻¹ s⁻¹.

In the case of `CCC[C@@H](NC(=O)N1C(=O)C(CC)(CC)[C@@H]1Oc1ccc(CN2C(C)CCC2C)cc1)c1ccc(C)cc1` (stereo partly shown) [R4+R5=--CHMeCH2 CH2 CHMe--; R6=H], the kinact/KI came to 670000 M⁻¹ s⁻¹.

Regarding `CCC[C@@H](NC(=O)N1C(=O)C(CC)(CC)[C@@H]1Oc1ccc(C2CCCN2CCOCC)cc1)c1ccc(C)cc1` (stereo partly shown) [R4=CH2 CH2 OEt; R5+R6=--CH2 CH2 CH2 --], the kinact/KI worked out at 1.1e+06 M⁻¹ s⁻¹.

Take `CCC[C@@H](NC(=O)N1C(=O)C(CC)(CC)[C@@H]1Oc1ccc(CN(CCOC)CCOC)cc1)c1ccc(C)cc1` [R4=CH2 CH2 OMe; R5=CH2 CH2 OMe; R6=H]: the kinact/KI is 820000 M⁻¹ s⁻¹.

`CCC[C@@H](NC(=O)N1C(=O)C(CC)(CC)[C@@H]1Oc1ccc(CN(CC)CCNC(C)=O)cc1)c1ccc(C)cc1` [R4=Et; R5=CH2 CH2 NHAc; R6=H]: the kinact/KI is 850000 M⁻¹ s⁻¹.

With `CCC[C@@H](NC(=O)N1C(=O)C(CC)(CC)[C@@H]1Oc1ccc(CN(CC)CCOCCOC)cc1)c1ccc(C)cc1` [R4=Et; R5=CH2 CH2 OCH2 CH2 OMe; R6=H], the kinact/KI stood at 1.3e+06 M⁻¹ s⁻¹.

For `CCC[C@@H](NC(=O)N1C(=O)C(CC)(CC)[C@@H]1Oc1ccc(CN(CC)CCOC(=O)N(C)C)cc1)c1ccc(C)cc1` [R4=Et; R5=CH2 CH2 OCONMe2; R6=H], the kinact/KI was determined as 1.4e+06 M⁻¹ s⁻¹.

With `CCC[C@@H](NC(=O)N1C(=O)C(CC)(CC)[C@@H]1Oc1ccc(CN(CC)CCOC)cc1)c1ccc(C)cc1` [R4=Et; R5=CH2 CH2 OMe; R6=H, (4S)-3,3-Diethyl-1-[(R)-α-n-propyl-(4-methyl)benzyl-aminocarbonyl]-4-[(4-(2-methoxyethyl)ethylamino-methyl)phenoxy]azetidin-2-one], the kinact/KI came out at 565000 M⁻¹ s⁻¹.

Regarding `CCC[C@@H](NC(=O)N1C(=O)C(CC)(CC)[C@@H]1Oc1ccc(C(C)N(CC)CCOC)cc1)c1ccc(C)cc1` (stereo partly shown) [R4=Et; R5=CH2 CH2 OMe; R6=Me], the kinact/KI is 600000 M⁻¹ s⁻¹.

`CCC[C@@H](NC(=O)N1C(=O)C(CC)(CC)[C@@H]1Oc1ccc(CN(CC)CCSC)cc1)c1ccc(C)cc1` [R4=Et; R5=CH2 CH2 SMe; R6=H]: the kinact/KI worked out at 690000 M⁻¹ s⁻¹.

As for `CCC[C@@H](NC(=O)N1C(=O)C(CC)(CC)[C@@H]1Oc1ccc(CN(CC)C(C)COC)cc1)c1ccc(C)cc1` (stereo partly shown) [R4=Et; R5=CH(Me)CH2 OMe; R6=H], the kinact/KI was 670000 M⁻¹ s⁻¹.

As for `CCC[C@@H](NC(=O)N1C(=O)C(CC)(CC)[C@@H]1Oc1ccc(CNC(C)=O)cc1)c1ccc(C)cc1` [R4=H; R5=Ac; R6=H, (4S)-3,3-Diethyl-1-[(R)-α-(n-propyl)-4-(methyl)benzylaminocarbonyl]-4-[(4-(N-acetyl)aminomethyl)phenoxy]azetidin-2-one], the kinact/KI came to 750000 M⁻¹ s⁻¹.

`CCC[C@@H](NC(=O)N1C(=O)C(CC)(CC)[C@@H]1Oc1ccc(C(C)NCCO)cc1)c1ccc(C)cc1` (stereo partly shown) [R4=H; R5=CH2 CH2 OH; R6=Me]: the kinact/KI was 660000 M⁻¹ s⁻¹.

For `CCC[C@@H](NC(=O)N1C(=O)C(CC)(CC)[C@@H]1Oc1ccc(C(C)NCCOC)cc1)c1ccc(C)cc1` (stereo partly shown) [R4=H; R5=CH2 CH2 OMe; R6=Me], the kinact/KI was determined as 680000 M⁻¹ s⁻¹.

Turning to `CCC[C@@H](NC(=O)N1C(=O)C(CC)(CC)[C@@H]1Oc1ccc(CNC(=O)CCN(CC)CC)cc1)c1ccc(C)cc1` [R4=H; R5=COCH2 CH2 N Et2; R6=H], the kinact/KI was 850000 M⁻¹ s⁻¹.

In the case of `CCC[C@@H](NC(=O)N1C(=O)C(CC)(CC)[C@@H]1Oc1ccc(CNC(=O)CN(C)Cc2ccccc2)cc1)c1ccc(C)cc1` [R4=H; R5=COCH2 N(Me)Bn; R6=H], the kinact/KI was found to be 1.4e+06 M⁻¹ s⁻¹.

Regarding `CCC[C@@H](NC(=O)N1C(=O)C(CC)(CC)[C@@H]1Oc1ccc(CNC(=O)CN(C)C)cc1)c1ccc(C)cc1` [R4=H; R5=COCH2 NMe2; R6=H, (4S)-3,3-Diethyl-1-[(R)-α-(n-propyl)-4-(methyl)benzyl-aminocarbonyl]-4-[(4-((N,N-dimethyl)aminomethylcarbonyl)aminomethyl)phenoxy]azetidin-2-one], the kinact/KI was 800000 M⁻¹ s⁻¹.

The test is the same for the next values; noted with them: pH 7.5, Table II; second order rate constant for inactivation of the enzyme; read-out: Kobs /[I].
`CCC[C@@H](NC(=O)N1C(=O)C(CC)(CC)[C@@H]1Oc1ccc(CCN2CCOCC2)cc1)c1ccc(C)cc1` [R4+R5=--CH2 CH2 OCH2 CH2 --; n=2, (4S)-3,3-Diethyl-1-[(R)-α-n-propyl-(4-methyl)benzylaminocarbonyl]-4-[(4-(2-(4-morpholino))ethyl)phenoxy]azetidin-2-one]: the kinact/KI was found to be 600000 M⁻¹ s⁻¹.

Consider `CCC[C@@H](NC(=O)N1C(=O)C(CC)(CC)[C@@H]1Oc1ccc(CCCN(CC)CC)cc1)c1ccc(C)cc1` [R4=Et; R5=Et; n=3], for which the kinact/KI was found to be 540000 M⁻¹ s⁻¹.

Staying with this test, now noted: pH 7.5, Table III; second order rate constant for inactivation of the enzyme; read-out: Kobs /[I].
In the case of `CCC[C@@H](NC(=O)N1C(=O)C(CC)(CC)[C@@H]1Oc1ccc(CN2CCN(C(=O)N(C)C)CC2)cc1)c1ccc2c(c1)OCO2` [(4S)-3,3-Diethyl-1-[(R)-α-n-propyl-3,4-methylenedioxy)benzylaminocarbonyl]-4-[(4-((4-diemthylaminocarbonyl)piperazin-1-yl)methyl)phenoxy]azetidin-2-one], the kinact/KI turned out to be 4e+06 M⁻¹ s⁻¹.
